According to patent US20250042848A1, “DEUTERATED FUNCTIONALIZED DERIVATIVES OF alpha-ALANINE, IN [sequence] FOR THE TREATMENT OF NEUROLOGICAL DISEASES” (UNIWERSYTET JAGIELLONSKI, priority 2021, published 2025):
Read-outs that look alike come from different tables or passages of the source.

Legend:
[1] = mouse, in vivo, po, 40 mg/kg
Procedure: The animals were housed at a temperature of 22-24° C., humidity of 50% (+/−10%), in a room providing 15 air changes per hour, with 12:12 hours light-dark cycle. In addition, they had constant access to food and water. […] Blood was allowed to clot at room temperature for 20 min, then centrifuged for 5 min, 10,000×g (Eppendorf miniSpin centrifuge, Germany) to obtain serum. The obtained biological material was stored at −70° C. until analysis.
Concentrations of the tested compounds in murine serum and brain homogenates were determined by high-performance liquid chromatography-tandem mass spectrometry (HPLC-MS/MS). Analyzes were performed on a Sciex QTRAP 4500 triple quad mass spectrometer coupled to an Exion LC AC HPLC (Danaher Corporation, USA). The chromatographic separation was carried out on a Hypersil Gold™ C18 column (3×50 mm, 5 μm, Thermo Scientific, USA), using a mixture of acetonitrile and water with 0.1% formic acid as the mobile phase. Analyzes were performed at 40° C. and the gradient shown in Table 7 was used to obtain optimal retention time. Valsartan was used as an internal standard. Positive ionization mode (ESI+) was used for maximum sensitivity. […]
Non-compartmental analysis was used to estimate the pharmacokinetic parameters. Maximum concentration (Cmax) and time necessary to reach maximum blood concentration-tmax were evaluated directly from the concentration-time plot.

[2] = tested on: maximal electroshock seizures in mice; assay: Maximal electroshock seizure test (MES); format: in vivo
Procedure: (§1) Initial screening was performed on groups of 4 mice. The mean effective dose (ED50) in a given test and the neurotoxic dose in the rotarod test (TD50) were estimated on the basis of the results obtained on 3-4 groups of animals consisting of 6 animals.
In the maximal electroshock seizure test (MES), the seizures were induced by 500 V, 25 mA electrical stimulus of 0.2 s in duration. The electrical pulse was generated using an electric shock generator (Rodent shocker, Type 221, Hugo Sachs Elektronik, Germany) and delivered to the animal using electrodes placed on the auricles. The study was conducted 30 minutes/2 hours after intraperitoneal administration of the compounds at various doses. During the experiment, the number of animals that experienced a seizure episode in the form of hindlimb tonic extension was counted (Łuszczki, J.J. et al. Fundam. Clin. Pharmacol. 2008, 22, 69-74).
(§2) The ED50 (effective dose) and TD50 (toxic dose) values along with the corresponding 95% confidence limits were calculated based on the Litchfield and Wilcoxon method (Litchfield, J.T.; Wilcoxon, F. J. Pharmacol. Exp. Ther. 1949, 96, 99-113). To perform a statistical evaluation of the results in the scPTZ test, one-way ANOVA variance analysis followed by Dunnett's post hoc test were used. The values were considered statistically significant if p<0.05.

[3] = tested on: psychomotor seizures induced by a 32 mA, 6 Hz stimulus in mice; assay: Psychomotor seizure test 6 Hz (32 mA); format: in vivo
Procedure: as §1
(§3) In the psychomotor seizure test (6 Hz test), seizures were induced by a 32 mA and/or 44 mA electrical stimulus of a frequency of 6 pulses per second. An electrical pulse was generated using an electric shock generator (ECT Unit 57800; Ugo Basile, Gemonio, Italy) and delivered to the animal using corneal electrodes. Before starting the test, the eye surface was gently moistened with a solution of local anesthetic (1% lidocaine solution). The study was conducted 30 minutes/2 hours after intraperitoneal administration of the compounds at various doses. An electrical stimulus was delivered continuously for a period of 3 seconds, followed by observation of the animal for a period of 10 seconds. During the experiment, the number of animals with an episode of psychomotor convulsions was counted: motor inhibition, staggering, maintaining a sitting posture, forelimb clonus, twitching of the vibrissae and Straub-tail were observed (Leclercq, K.; Kaminski, R.M. Epilepsia 2015, 56, 310-318).
as §2

[4] = tested on: psychomotor seizures induced by a 44 mA, 6 Hz stimulus in mice; assay: Psychomotor seizure test 6 Hz (44 mA); format: in vivo; conditions: in mg/kg
Procedure: as §1, §3, §2

[5] = tested on: motor coordination of mice; assay: Rotarod test (motor coordination, acute neurotoxicity); format: in vivo; conditions: in mg/kg
Procedure: as §1
The effect of the tested compounds on motor coordination was assessed in the rotarod test (May Commat, RR 0711 RotaRod, Turkey). The day before the actual experiment, the mice were trained on a rod rotating at 10 revolutions per minute (rpm) for 3 minutes. The experiment was performed 30 minutes and 2 hours after administration of the compounds. The motor coordination of the animals was tested at the speed of the rotating rod: 10 rpm for 60 seconds. The measure of neurotoxicity was the inability to stay on the rod for a given time (Łuszczki, J.J. et al. Eur. Neuropsychopharmacol. 2005, 6, 609-616).
as §2

[6] = tested on: human liver microsomes (HLMs); assay: In vitro metabolic stability, human liver microsomes; format: in vitro ADME; conditions: 120-minute incubation with HLMs
Procedure: Metabolic stability assessment was performed using mouse (MLMs) and human (HLMs) liver microsomes purchased from Sigma-Aldrich (St. Louis, MO, USA). The detailed methodology is described in the literature (Kamiński et al. J. Med. Chem. 2015, 58, 5274-5286). The reaction mixture was prepared by mixing […] of the tested compound with mouse or human microsomes (1 mg/mL) in 10 mM TRIS-HCl buffer. The reaction mixture was pre-incubated for 5 min at 37° C. After the initial incubation, 50 μL of the NADPH Regeneration System (Promega, Madison, WI, USA) was added to initiate the reaction. The reaction mixture was then incubated for 120 min at 37° C. 200 μL of cold extra pure methanol was added to complete the reaction. The mixture was then centrifuged at 14,000 g for 15 min and the supernatants were analyzed using a Waters ACQUITY™ TQD LC/MS system with a TQ detector (Waters, Milford, USA). Each experiment was performed in triplicate.

[7] = tested on: motor coordination of mice; conditions: in vivo; cited from earlier work
[8] = tested on: spontaneous locomotor activity of mice; conditions: mouse, in vivo; cited from earlier work
[9] = tested on: human liver microsomes (HLMs); conditions: cited from earlier work
CYP3A4 = CYP3A4 (Homo sapiens, UniProt P08684); conditions: cited from earlier work
CYP2D9 = conditions: cited from earlier work
[10] = tested on: psychomotor seizures induced by a 32 mA, 6 Hz stimulus in mice; conditions: 0.5 h, i.p.; own data disclosed in Abram et al. Bioorg. Chem. 2021; in mg/kg; cited from earlier work
[11] = tested on: pentylenetetrazole-induced clonic seizures in mice; conditions: 0.5 h, i.p.; own data disclosed in Abram et al. Bioorg. Chem. 2021; in mg/kg; cited from earlier work
[12] = 0.5 h after i.p. administration
[13] = 2.0 h after i.p. administration

Sequence of CYP3A4 (P08684 whole entry): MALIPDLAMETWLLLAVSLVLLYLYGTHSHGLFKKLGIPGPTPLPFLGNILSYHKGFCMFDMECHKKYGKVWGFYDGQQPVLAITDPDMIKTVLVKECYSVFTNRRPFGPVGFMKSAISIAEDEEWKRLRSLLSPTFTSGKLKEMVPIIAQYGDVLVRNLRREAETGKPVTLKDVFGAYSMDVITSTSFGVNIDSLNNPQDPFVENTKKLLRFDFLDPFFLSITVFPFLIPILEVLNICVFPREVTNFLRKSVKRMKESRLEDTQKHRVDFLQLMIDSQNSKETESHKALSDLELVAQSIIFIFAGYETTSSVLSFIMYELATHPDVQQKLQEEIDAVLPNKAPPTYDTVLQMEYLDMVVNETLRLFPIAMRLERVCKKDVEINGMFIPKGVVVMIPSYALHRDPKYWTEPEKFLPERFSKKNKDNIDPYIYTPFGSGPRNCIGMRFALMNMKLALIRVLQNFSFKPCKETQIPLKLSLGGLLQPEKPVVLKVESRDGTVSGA

Structure (SMILES) | tmax [1] [min] | ED50 MES [2, 12] [mg/kg] | ED50 MES [2, 13] [mg/kg] | ED50 6 Hz (32 mA) [3, 12] [mg/kg] | ED50 6 Hz (32 mA) [3, 13] [mg/kg] | ED50 6 Hz (44 mA) [4, 12] | ED50 6 Hz (44 mA) [4, 13] | TD50 Rotarod [5, 12] | TD50 Rotarod [5, 13] | metabolic stability [6] | effect on mouse motor coordination in the rotarod test [7] | sedative effect in spontaneous locomotor activity test on mice [8] | metabolic stability on human microsomes [9] | interaction with CYP3A4 isoform of cytochrome P-450 (CYP3A4) | interaction with CYP2D9 isoform of cytochrome P-450 (CYP2D9) | ED50 6 Hz (32 mA) [10] | ED50 scPTZ [11]
CC(C(=O)NCc1ccccc1F)N1C(=O)CCC1=O (centres unmarked) [Compound 2, reference compound] | 30 | 23.6 | 73.3 | 16.7 | 38.1 | 78.3 | 86.8 | >100 | >300 | high metabolic stability | minimal effect | no sedative effect | very high metabolic stability | no interaction | no interaction |  | 
CCCC(CCC)C(=O)O [VPA, valproic acid] |  |  |  |  |  |  |  |  |  |  |  |  |  |  |  | 130.6 | 239.4
